From the supplement of paper PMC10307832

How the values were obtained:
Experiment in all cases: relative viability (nuclei count vs DMSO), 5 days (fraction); higher = more cells survive
EHT 1864 + Linsitinib = compound: C1COCCN1CC2=CC(=O)C(=CO2)OCCCCCSC3=C4C=CC(=CC4=NC=C3)C(F)(F)F [EHT 1864] + C[C@]1(O)C[C@@H](c2nc(-c3ccc4ccc(-c5ccccc5)nc4c3)c3c(N)nccn32)C1 [Linsitinib] (partner 1 µM)
Summary of the method: (§1)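 Lung cancer cell lines were seeded in 1536-well plates and dosed by pin tool the next day, with either a single drug or a fixed anchor-drug dose combined with five library-drug doses (not always all listed) spaced in √10 steps. Five days later, one step fixed the cells and stained their nuclei (final 0.05% Triton X-100, 1% formaldehyde, 1 ug/ml Hoechst), and nuclei were counted on 4× images. Relative viability is the nuclei count in treated wells divided by the count in vehicle wells, and each value is the median of duplicate plates.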

EHT 1864 + Pemetrexed = compound: C1COCCN1CC2=CC(=O)C(=CO2)OCCCCCSC3=C4C=CC(=CC4=NC=C3)C(F)(F)F [EHT 1864] + Nc1nc2[nH]cc(CCc3ccc(C(=O)N[C@@H](CCC(=O)O)C(=O)O)cc3)c2c(=O)[nH]1 [Pemetrexed] (partner 0.2 µM)
Summary of the method: as §1

EHT 1864 + Vorinostat = compound: C1COCCN1CC2=CC(=O)C(=CO2)OCCCCCSC3=C4C=CC(=CC4=NC=C3)C(F)(F)F [EHT 1864] + O=C(CCCCCCC(=O)Nc1ccccc1)NO [Vorinostat] (partner 1 µM)
Summary of the method: as §1

EHT 1864 + Olaparib = compound: C1COCCN1CC2=CC(=O)C(=CO2)OCCCCCSC3=C4C=CC(=CC4=NC=C3)C(F)(F)F [EHT 1864] + O=C(c1cc(Cc2n[nH]c(=O)c3ccccc23)ccc1F)N1CCN(C(=O)C2CC2)CC1 [Olaparib] (partner 8 µM)
Summary of the method: as §1

Row | Cell Line | relative viability (EHT 1864 + Linsitinib; first compound 0.04 µM) | relative viability (EHT 1864 + Linsitinib; first compound 0.4 µM) | relative viability (EHT 1864 + Linsitinib; first compound 1.265 µM) | relative viability (EHT 1864 + Linsitinib; first compound 4 µM) | relative viability (EHT 1864 + Pemetrexed; first compound 0.04 µM) | relative viability (EHT 1864 + Pemetrexed; first compound 0.1265 µM) | relative viability (EHT 1864 + Pemetrexed; first compound 0.4 µM) | relative viability (EHT 1864 + Pemetrexed; first compound 1.265 µM) | relative viability (EHT 1864 + Pemetrexed; first compound 4 µM) | relative viability (EHT 1864 + Vorinostat; first compound 0.04 µM) | relative viability (EHT 1864 + Vorinostat; first compound 0.1265 µM) | relative viability (EHT 1864 + Vorinostat; first compound 0.4 µM) | relative viability (EHT 1864 + Vorinostat; first compound 1.265 µM) | relative viability (EHT 1864 + Vorinostat; first compound 4 µM) | relative viability (EHT 1864 + Olaparib; first compound 0.04 µM) | relative viability (EHT 1864 + Olaparib; first compound 0.1265 µM) | relative viability (EHT 1864 + Olaparib; first compound 0.4 µM) | relative viability (EHT 1864 + Olaparib; first compound 1.265 µM) | relative viability (EHT 1864 + Olaparib; first compound 4 µM) | relative viability (EHT 1864 + Linsitinib; first compound 0.1265 µM)
1 | NCI-H23 | 0.522 | 0.443 | 0.59 | 0.551 | 0.715 | 0.549 | 0.632 | 0.671 | 0.748 | 0.627 | 0.343 | 0.582 | 0.578 | 0.532 | 0.295 | 0.271 | 0.284 | 0.296 | 0.32 | –
2 | NCI-H322M | 0.89 | 0.98 | 0.878 | 0.968 | 0.606 | 0.64 | 0.596 | 0.678 | 0.604 | 0.856 | 0.921 | 0.863 | 0.807 | 0.789 | 0.704 | 0.822 | 0.811 | 0.782 | 0.879 | 0.806
3 | NCI-H358 | 0.759 | 0.738 | 0.794 | 0.639 | 0.173 | 0.169 | 0.178 | 0.189 | 0.168 | 0.645 | 0.652 | 0.612 | 0.68 | 0.559 | 0.626 | 0.594 | 0.574 | 0.551 | 0.548 | –
4 | NCI-H441 | 0.517 | 0.503 | 0.461 | 0.561 | 0.28 | – | 0.286 | 0.241 | 0.255 | 0.975 | – | 0.713 | 0.75 | 0.735 | 0.562 | – | 0.503 | 0.477 | 0.617 | 0.574
5 | NCI-H460 | 0.76 | 0.747 | 0.624 | 0.845 | – | 0.0604 | 0.0667 | 0.0607 | 0.0677 | – | 0.718 | 0.703 | 0.654 | 0.647 | 0.461 | 0.387 | 0.389 | 0.363 | 0.351 | 0.603
6 | NCI-H520 | 0.917 | 0.747 | 0.813 | 0.913 | 0.67 | 0.588 | 0.758 | 0.627 | 0.604 | 0.734 | 0.628 | 0.696 | 0.758 | 0.715 | 0.271 | 0.318 | 0.354 | 0.419 | 0.351 | 0.998
7 | NCI-H596 | 1.06 | 0.989 | 0.906 | 0.964 | 0.554 | 0.513 | 0.447 | 0.575 | 0.468 | 0.724 | 0.476 | 0.694 | 0.577 | 0.657 | 0.773 | 0.719 | 0.8 | 0.781 | 0.777 | 1.11
8 | NCI-H647 | 1.03 | 1.2 | 1.15 | 0.983 | 0.203 | 0.13 | 0.164 | 0.157 | 0.177 | 0.612 | 0.455 | 0.512 | 0.762 | 0.485 | 0.493 | 0.503 | 0.539 | 0.312 | 0.613 | 1.13
9 | NCI-H650 | 0.94 | 1.01 | 0.947 | 0.884 | 0.975 | 0.75 | 0.968 | 0.947 | 0.927 | 0.497 | 0.308 | 0.413 | 0.457 | 0.478 | 0.425 | 0.386 | 0.383 | 0.39 | 0.413 | –
10 | NCI-H661 | 0.603 | 0.535 | 0.512 | 0.449 | 0.904 | 0.884 | 0.871 | 0.844 | 0.682 | 0.836 | 0.685 | 0.773 | 0.697 | 0.712 | 0.799 | 0.685 | 0.684 | 0.606 | 0.567 | 0.516
11 | NCI-H838 | 0.977 | 1.08 | 1.05 | 1.01 | 0.249 | 0.236 | 0.236 | 0.233 | 0.219 | 0.713 | 0.668 | 0.74 | 0.723 | 0.727 | 0.743 | 0.726 | 0.788 | 0.79 | 0.807 | 0.889
12 | NCI-H1355 | 0.781 | 0.718 | 0.72 | 0.77 | 1.14 | 0.872 | 1.02 | 1.1 | 0.985 | 0.659 | 0.548 | 0.633 | 0.619 | 0.696 | 0.718 | 0.657 | 0.772 | 0.727 | 0.706 | 0.667
13 | NCI-H1395 | 1.02 | 0.957 | 1.16 | 1.02 | 0.923 | 0.73 | 0.89 | 0.805 | 0.915 | 0.775 | 0.552 | 0.819 | 0.607 | 0.681 | 0.472 | 0.548 | 0.48 | 0.488 | 0.459 | 0.982
